The test system of series [1] is Mper1-luc Rat-1 (P2C4) fibroblasts. Nature of the series: Test C: circadian cell assay, mPer1-luciferase reporter period analysis. It counts as cell-based. To be noted: effective concentration that induces a 1-hour prolongation of the circadian period; values or ranges from several experiments. Here is the method: Test C: Experimental Protocol for Circadian Cell Assay
Mper1-luc Rat-1 (P2C4) fibroblast cultures were prepared by dividing the cultures every 3-4 days (about 10-20% of confluence) on 150 cm^2 degassed polystyrene tissue culture flasks (Falcon® #35-5001) and maintained in growth medium [EMEM (Cellgro #10-010-CV); 10% foetal bovine serum (FBS; Gibco #16000-044); and 50 I.U./mL of penicillin-streptomycin (Cellgro #30-001-Cl)] at 37° C. and under 5% CO2.
Cells obtained from Rat-1 fibroblast cultures at 30-50% of confluence as described above were co-transfected with vectors containing the selection marker for resistance to zeocin for a stable transfection and a luciferase reporter gene directed by the promoter mPer-1. After 24 to 48 hours, the cultures were divided on 96-well plates and maintained in growth medium supplemented with 50-100 μg/mL of zeocin (Invitrogen® #45-0430) for 10-14 days. The zeocin-resistant stable transfectants were evaluated for expression of the reporter by adding to the growth medium luciferin 100 μM (Promega® #E1603®) and by assaying the luciferase activity on a TopCount® scintillation counter (Packard model #C384V00). The Rat-1 cell clones expressing both zeocin resistance and luciferase activity directed by mPer1 were serum-shock-synchronized with 50% horse serum [HS (Gibco® #16050-122)] and the activity of the circadian reporter was evaluated. The P2C4 clone of fibroblasts Mper1-luc Rat-1 was selected to test the compound.
The Mper1-luc Rat-1 (P2C4) fibroblasts at 40-50% of confluence obtained according to the protocol described above were plated out onto 96-well opaque tissue culture plates (Perkin Elmer® #6005680). The cultures are maintained in growth medium supplemented with 100 μg/mL of zeocin (Invitrogen #45-0430) until they reached 100% of confluence (48-72 hours). The cultures were then synchronized with 100 μL of synchronization medium [EMEM (Cellgro #10-010-CV); 100 I.U./mL of penicillin-streptomycin (Cellgro #30-001-C1); 50% HS (Gibco #16050-122)] for 2 hours at 37° C. and under 5% CO2. After synchronization, the cultures were rinsed with 100 μL of EMEM (Cellgro #10-010-CV) for 10 minutes at room temperature. […]
The period analysis was performed either by determining the interval between the relative light emission minima over several days or by Fourier transform. […] The data were analysed by adjusting a hyperbolic curve to the data expressed as change of period (y-axis) as a function of the concentration of the test compound (x-axis) in the XLfit™ software and the EC Delta (t+1 h) was interpolated from this curve. […]

For series [2], the target named is casein kinase 1 epsilon (CK1 epsilon) (Homo sapiens (Human), UniProt P49674). As to the kind of experiment: Test A: inhibitory activity on CK1 epsilon, casein phosphorylation assay on ATP-33P filter plate. The format is biochemical. To be noted: IC50 values or IC50 ranges (result of several experiments), ATP 10 μM final. The method, boiled down:
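Human CK1 epsilon (3 ng/μL final) phosphorylates dephosphorylated casein (0.2 μg/μL) with ATP-33P plus 10 μM cold ATP (KM for ATP 21 μM), 2 h at room temperature, pH 7.5 Tris buffer. TCA-precipitated protein counted by scintillation; compounds at 10 to 0.001 μM give IC50 values or % inhibition at 10 μM.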

The target in another series is human CK1 delta (Homo sapiens (Human), UniProt P48730). As to the kind of experiment: Test B: inhibitory activity on CK1 delta measured by FRET (Z'Lyte kinase assay kit). As to conditions: substrate peptide SER/THR 11 2 μM, ATP 4 times the KM. The format is biochemical. The source says: Test B: Inhibitory Activity on CK1 Delta Measured by FRET
The capacity of the compounds of the invention to inhibit the phosphorylation of casein by the casein kinases 1 epsilon and delta may be evaluated using an FRET (Fluorescence Resonance Energy Transfer) fluorescence test with the aid of the “Z'Lyte™ kinase assay kit” (reference PV3670; Invitrogen Corporation™) according to the manufacturer's instructions.
The casein kinases 1 used are obtained from Invitrogen Corporation (human CK1 epsilon PV3500 and human CK1 delta PV3665).
A peptide substrate labelled at both ends with a fluorophore-donating group (coumarin) and a fluorophore-accepting group (fluorescein) constituting an FRET system is […] in the presence of ATP by casein kinase 1 epsilon or delta in the presence of increasing concentrations of compounds of the invention.
The mixture is treated with a site-specific protease that specifically cleaves the substrate peptide to form two fluorescent fragments having a large fluorescence emission ratio.
The fluorescence observed is thus related to the capacity of the products of the invention to inhibit the phosphorylation of the substrate peptide by casein kinase 1 epsilon or casein kinase 1 delta. […]
The emitted fluorescence is measured at wavelengths of 445 and 520 nm (excitation at 400 nm). […]

Structures are written as SMILES. Values joined by “and” are separate entries in the source; they are usually repeats but may differ in a detail not shown here. Identical values can stand only once. Bounds are passed on as bounds.

Chain of casein kinase 1 epsilon (CK1 epsilon) (P49674 whole entry): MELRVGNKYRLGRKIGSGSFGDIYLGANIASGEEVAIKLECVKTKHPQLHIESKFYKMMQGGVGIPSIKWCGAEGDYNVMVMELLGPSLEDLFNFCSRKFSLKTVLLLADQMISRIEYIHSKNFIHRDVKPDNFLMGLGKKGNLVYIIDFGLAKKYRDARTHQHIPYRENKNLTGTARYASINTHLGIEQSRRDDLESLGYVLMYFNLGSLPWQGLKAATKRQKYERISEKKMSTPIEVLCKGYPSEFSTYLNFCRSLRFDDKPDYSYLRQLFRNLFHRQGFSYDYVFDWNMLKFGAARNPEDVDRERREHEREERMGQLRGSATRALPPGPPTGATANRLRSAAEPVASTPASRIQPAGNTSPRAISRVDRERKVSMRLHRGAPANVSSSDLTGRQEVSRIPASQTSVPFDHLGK
Chain of human CK1 delta (P48730 whole entry): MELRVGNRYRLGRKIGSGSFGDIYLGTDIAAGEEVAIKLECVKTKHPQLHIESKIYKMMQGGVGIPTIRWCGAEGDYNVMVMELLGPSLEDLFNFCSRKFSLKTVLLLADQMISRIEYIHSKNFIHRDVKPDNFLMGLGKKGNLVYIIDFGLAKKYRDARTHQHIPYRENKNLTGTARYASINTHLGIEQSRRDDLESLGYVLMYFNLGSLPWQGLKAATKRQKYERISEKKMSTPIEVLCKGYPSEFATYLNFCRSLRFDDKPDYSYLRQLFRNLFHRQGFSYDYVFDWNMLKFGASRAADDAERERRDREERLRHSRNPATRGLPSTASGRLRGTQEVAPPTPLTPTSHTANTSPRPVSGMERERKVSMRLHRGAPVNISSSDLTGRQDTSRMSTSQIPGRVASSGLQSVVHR

Turning to `Cc1c(-c2ccccc2)c(C(N)=O)c2n1CCN(C(=O)NC(C)(C)C)C2` [Compound 3, N^2-tert-butyl-6-methyl-7-phenyl-3,4-dihydropyrrolo[1,2-a]pyrazine-2,8(1H)-dicarboxamide], in series [1], the “CE Delta (t + 1 h)” value stood at 8 nM. For the same compound, the IC50 (in general, the concentration that inhibits the measured activity by half) in series [2] lay within 0.005 to 0.104 µM.

Consider `CC(C)(C)NC(=O)N1CCn2c(c(C(N)=O)c(-c3ccccc3)c2C2CC2)C1` [Compound 10, N^2-tert-butyl-6-cyclo-propyl-7-phenyl-3,4-dihydropyrrolo[1,2-a]pyrazine-2,8(1H)-dicarboxamide], for which the 50% inhibitory concentration (IC50) at human CK1 delta was 0.031 µM; in series [2] it was 0.015 to 0.077 µM.

As for `CC(C)(C)NC(=O)N1CCn2c(c(C(N)=O)c(-c3ccc4ccccc4c3)c2C2CC2)C1` [Compound 25, N^2-tert-butyl-6-cyclo-propyl-7-(naphthalen-2-yl)-3,4-dihydropyrrolo[1,2-a]pyrazine-2,8(1H)-dicarboxamide], the “CE Delta (t + 1 h)” value in series [1] was 26 nM. The compound also displayed an IC50 in series [2] of 0.033 µM.

For `NC(=O)c1c(-c2ccccc2)c(C2CC2)n2c1CN(C(=O)NC13CC4CC(CC(C4)C1)C3)CC2` [Compound 54, N^2-(adamantan-1-yl)-6-cyclo-propyl-7-phenyl-3,4-dihydropyrrolo[1,2-a]pyrazine-2,8(1H)-dicarboxamide], in series [1], the “CE Delta (t + 1 h)” value stood at 15 nM. In series [2], this compound came in with an IC50 of 0.006 µM.

As for `CC(C)(C)NC(=O)N1CCn2c(Cl)c(-c3ccccc3)c(C(N)=O)c2C1` [Compound 60, N^2-tert-butyl-6-chloro-7-phenyl-3,4-dihydropyrrolo[1,2-a]pyrazine-2,8(1H)-dicarboxamide], the melting point (usually the temperature of the solid-liquid transition) was 197 to 199 °C and 192 to 195 °C. Besides, the “CE Delta (t + 1 h)” value in series [1] is 3 to 20 nM. Moreover, the half-maximal inhibitory concentration (IC50) in series [2] fell in the range of 0.001 to 0.012 µM.

For `N#Cc1c(-c2cccc(F)c2)c(C(N)=O)c2n1CCN(C(=O)NC1CCOCC1)C2` [Compound 109, 6-cyano-7-(3-fluorophenyl)-N^2-(tetrahydro-2H-pyran-4-yl)-3,4-dihydropyrrolo[1,2-a]pyrazine-2,8(1H)-dicarboxamide], the melting point lay within 232 to 234 °C. In series [2], the IC50 was 0.009 µM.

`N#Cc1c(-c2cccc(F)c2)c(C(N)=O)c2n1CCN(C(=O)NC1CCC(F)(F)CC1)C2` [Compound 110, 6-cyano-N^2-(4,4-difluoro-cyclohexyl)-7-(3-fluorophenyl)-3,4-dihydropyrrolo[1,2-a]pyrazine-2,8(1H)-dicarboxamide] had a melting point of 237 to 240 °C. This compound also had an IC50 in series [2] of under 0.001 µM.

(Values after US9233965B2, “3,4-dihydropyrrolo[1,2-A]pyrazine-2,8(1H)-dicarboxamide derivatives, preparation thereof and therapeutic use thereof for diseases involving casein kinase 1 epsilon and/or casein kinase 1 delta” (SANOFI, priority 2010, dated 2016).)
